This note sets out measurements from patent US20060247233A1, “Thiazoles inhibitors of the alk-5 receptor” (priority 2003, published 2006).

The subject of data set [1] is HepG2 cells stably transfected with the PAI-1 promoter linked to a luciferase (firefly) reporter gene, exposed to TGF-β. The data set can be described thus: Assay 1 (Cellular Transcriptional Assay): TGF-β induced PAI-1 promoter luciferase reporter. The following applies: for IC50: Homo sapiens, HepG2, read-out: TGF-β cellular activity (IC50).
Experimental: The assay was performed in HepG2 cells stably transfected with the PAI-1 promoter (known to be a strong TGF-β responsive promoter) linked to a luciferase (firefly) reporter gene. The compounds were selected on their ability to inhibit luciferase activity in cells exposed to TGF-β. In addition, cells were transfected with a second luciferase (Renilla) gene which was not driven by a TGF-β responsive promoter and was used as a toxicity control.
96 well microplates were seeded, using a multidrop apparatus, with the stably transfected cell line at a concentration of 35000 cells per well in 200 μl of serum-containing medium. These plates were placed, in a cell incubator.
18 to 24 hours later (Day 2), cell-incubation procedure was launched: Cells were incubated with TGF-β and a candidate compound at concentrations in the range 50 nM to 10 μM (final concentration of DMSO 1%). The final concentration of TGF-β (rhTGFβ-1) used in the test was 1 ng/mL. […] The final volume of the test reaction was 150 μl. Each well contained only one candidate compound and its effect on the PAI-1 promoter was monitored.
Columns 11 and 12 were employed as controls. Column 11 contained 8 wells in which the cells were incubated in the presence of TGF-β, without a candidate compound. Column 11 was used to determine the ‘reference TGF-β induced firefly luciferase value’ against which values measured in the test wells (to quantify inhibitory activity) were compared. In wells A12 to D12, cells were grown in medium without TGF-β. […]
12 to 18 hours later (day 3), the luciferase quantification procedure was launched. […] Following agitation (15 to 30 mins), luciferase activities of the plates were read in a dual-injector luminometer (BMG lumistar). For this purpose, 50 μl of luciferase assay reagent and 50 μl of ‘Stop & Glo’ buffer were injected sequentially to quantify the activities of both luciferases. […] For each of the compounds tested, a concentration response curve was constructed from which an IC50 value was determined graphically.
Data set [2] deals with T1, recombinant GST-ALK5 (residues 198-503) (Homo sapiens, UniProt P36897).
T1 construct: assays using recombinant GST-ALK5 (residues 198-503); GST (N)
T1 sequence (P36897 198-503): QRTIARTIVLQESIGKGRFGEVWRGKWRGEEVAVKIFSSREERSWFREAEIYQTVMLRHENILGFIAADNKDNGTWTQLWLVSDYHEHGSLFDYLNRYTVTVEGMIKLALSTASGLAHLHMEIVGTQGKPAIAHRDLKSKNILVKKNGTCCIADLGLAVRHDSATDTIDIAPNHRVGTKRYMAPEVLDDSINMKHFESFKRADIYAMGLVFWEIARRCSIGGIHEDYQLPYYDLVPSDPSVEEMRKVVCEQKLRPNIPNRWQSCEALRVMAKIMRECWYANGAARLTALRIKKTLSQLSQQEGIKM
The data set can be described thus: Assay 2 (Alk5 Fluorescence Polarization Assay). The following applies: rhodamine green-labelled ligand 1 nM, ALK5 10 nM, read-out: ALK5 receptor modulator activity (IC50). Type of data set: binding. As for the experimental part: Assay 2 (Alk5 Fluorescence Polarization Assay)
Kinase inhibitor compounds conjugated to fluorophores, can be used as fluorescent ligands to monitor ATP competitive binding of other compounds to a given kinase. The increase in depolarization of plane polarized light, caused by release of the bound ligand into solution, is measured as a polarization/anisotropy value. This protocol details the use of a rhodamine green-labelled ligand for assays using recombinant GST-ALK5 (residues 198-503).
Assay buffer components: 62.5 mM Hepes pH 7.5 (Sigma H-4034), 1 mM DTT (Sigma D-0632), 12.5 mM MgCl2 (Sigma M-9272), 1.25 mM CHAPS (Sigma C-3023). […]
ALK5 was added to assay buffer containing the above components and 1 nM of the rhodamine green-labelled ligand so that the final ALK5 concentration was 10 nM based on active site titration of the enzyme. […] The plates were read immediately on a UL Acquest fluorescence reader (Molecular Devices, serial number AQ1048) with excitation, emission, and dichroic filters of 485 nm, 530 nm, and 505 nm, respectively. The fluorescence polarization for each well was calculated by the Acquest reader and then imported into curve fitting software for construction of concentration response curves. The normalized response was determined relative to the high controls (1 μl DMSO in column 12, rows […]) and the low controls (1 μl of control compound in column 12, rows E-H). […]

Take `Cc1cccc(-c2sc(N)nc2-c2ccc3c(c2)OCO3)n1` [Example 7, 4-(Benzo[1,3]dioxol-5-yl)-5-(6-methylpyridin-2-yl)-1,3-thiazol-2-amine]: the melting point lay within 170 to 172 °C.
In the case of `O=C1C=CCC1` [CPO, Cyclopentenone, reference compound], in data set [1] (500 μM, in the presence of TGF-β, toxicity control), the “firefly and renilla luciferase activities, relative to TGF-β only wells” value is reported as “around 50%”.
The compound `CCn1cnc2ccc(-c3sc(N)nc3-c3cccc(C)n3)cc21` [Example 3, 5-(1-ethyl-benzimidazol-6-yl)-4-(6-methylpyridin-2-yl)-1,3-thiazol-2-amine] showed a melting point of 218 to 220 °C.
`Cc1cccc(-c2nc(N)sc2-c2ccc3ncn(C)c3c2)n1` [Example 1, 5-(1-methyl-benzimidazol-6-yl)-4-(6-methylpyridin-2-yl)-1,3-thiazol-2-amine] returned a melting point of 244 to 246 °C. Further, the IC50 in data set [2] was found to be 16 nM. Besides, in data set [1], the IC50 worked out at 11 nM.
With `COCCn1cnc2ccc(-c3sc(N)nc3-c3cccc(C)n3)cc21` [Example 4, 5-(1-(2-methoxyethyl)-benzimidazol-6-yl)-4-(6-methylpyridin-2-yl)-1,3-thiazol-2-amine], the melting point lay in the range of 200 to 202 °C.
`Cc1cccc(-c2sc(N)nc2-c2ccc3ncoc3c2)n1` [Example 2, 4-(benzoxazol-6-yl)-5-(6-methyl-pyridin-2-yl)-1,3-thiazol-2-amine]: the melting point lay in the range of 188 to 190 °C.
`Nc1nc(-c2ccc3c(c2)OCCO3)c(-c2ccccn2)s1` [Example 8, 4-(Benzodioxan-6-yl)-5-(Pyridin-2-yl)-1,3-thiazol-2-amine] came in with a melting point of 214 °C.
`Cc1cccc(-c2nc(N)sc2-c2ccc3c(c2)N(C)C(=O)CO3)n1` [Example 5, 5-[4-methyl-4H-benzo[1,4]oxazin-3-one-6-yl]-4-(6-methylpyridin-2-yl)-1,3-thiazol-2-amine] displayed a melting point of 240 to 242 °C.
`Nc1nc(-c2ccc3ncccc3c2)c(-c2ccccn2)s1` [Example 9, 4-(Quinolin-6-yl)-5-(pyridin-2-yl)-1,3-thiazol-2-amine] showed a melting point of 226 °C.
Turning to `CCN1C(=O)COc2ccc(-c3sc(N)nc3-c3cccc(C)n3)cc21` [Example 6, 5-[4-ethyl-4H-benzo[1,4]oxazin-3-one-6-yl]-4-(6-methylpyridin-2-yl)-1,3-thiazol-2-amine], the melting point lay in the range of 228 to 230 °C. Further, in data set [2], the IC50 is 27 nM. The IC50 in data set [1] was determined as 104 nM.

Broadly, the melting point is the temperature, or range, at which the solid turns liquid. As usually defined, the IC50 is the midpoint of a concentration-inhibition curve.
